In PubChem BioAssay AID2252 (Southern Research Specialized Biocontainment Screening …, 2010):
“And” between values parts separate entries of the source, which are not always exact repeats. Equal values may be shown once.

Test system: THP-1 viability, CellTiter-Glo luminescence, 72 h
Experiment: PubChem AID 2252

Row | Compound | EC50
1 | COCCCNC(=S)NNC(=O)c1ccccn1 | 38 µM
2 | CC(C)NC(=O)Nc1ccc(Br)cc1Cl | < 0.1 µM
3 | Cc1ccc(Nc2cc(C)nn2-c2nc(C)cc(=O)[nH]2)cc1 | 0.65 µM
4 | O=C(CSc1cccc2cccnc12)Nc1ccc(S(=O)(=O)N2CCOCC2)cc1 | 24.3 µM
5 | Fc1ccc(/C=N/Nc2nc3ccccc3[nH]2)cc1F | 42.8 µM
6 | CCCCCCCCCCOC(=O)Cn1c(COc2ccc(OC)cc2)[n+](C)c2ccccc21 | 4.04 µM and 2.21 µM
7 | COc1ccc(C[C@H]2CN3C(=NC[C@H]3Cc3ccccc3)N2CCNC(=O)c2ccc(C)c(Br)c2)cc1 | 7.83 µM
8 | Cc1ccc(S(=O)(=O)NC(C)(C)CSc2nnc(N)s2)cc1 | < 0.1 µM
9 | Cc1cc(C(C)(C)CC(C)(C)C)ccc1OCCOCC[N+](C)(C)Cc1ccccc1 | 1.18 µM
10 | CC[n+]1c(/C=C/C=C/c2ccc(N(C)C)cc2)sc2ccccc21 | 1.43 µM
11 | O=C(NC(=S)NNC(=O)c1ccccc1O)c1ccco1 | 17.2 µM
12 | Cc1cc(C2CCCCC2)n(O)c(=O)c1 | 0.63 µM
13 | C=CCNc1ncnc2c1[nH]c1ccc(Cl)cc12 | 7.13 µM
14 | O=C(CCN1CCN(c2ccccc2)CC1)c1ccc(Br)cc1 | 38.2 µM
15 | CCOc1ccc(/C=N/NC(=O)c2[nH]ncc2Br)c(O)c1 | 1.47 µM
16 | C#CCOCCOCCOCCNc1nc(N2CCN(C(=O)CCCCCCCCCCNC(=O)[C@H](CCCCN)n3cc(C)nn3)CC2)nc(N2CCN(C(=O)CCCCCCCCCCNC(=O)[C@H](CCCN=C(N)N)n3cc(C[C@@H](C)CC)nn3)CC2)n1 | 5.13 µM
17 | Cc1cc(C)c2c(N)c3ccccc3nc2n1 | 12.4 µM
18 | Cc1cc(NC(=O)/C=C/C(=O)N(c2ccccc2C)C(C(=O)NC2CCCC2)c2ccc(F)cc2)no1 (configuration not stated) | 37.5 µM
19 | CC1(C)Oc2ccc3ccc(=O)oc3c2/C(=C/NCCN/C=C2\C(=O)C(C)(C)Oc3ccc4ccc(=O)oc4c32)C1=O | < 0.1 µM
20 | CNC[C@H](CC1CCCCC1)NC[C@H](Cc1ccccc1)NCCC12CC3CC(CC(C3)C1)C2 | 3.49 µM
21 | COc1ccc(Nc2cc(C)nc(NCc3ccccc3)n2)cc1 | 4.79 µM
22 | O=C(O)c1ccc(NC2=C(Cl)C(=O)c3ccccc3C2=O)cc1 | 11.5 µM
23 | Cc1ccc(Nc2c3c(nc4ccccc24)CCC3)cc1 | 9.1 µM

Row | Compound | EC50
24 | C/C(Cn1nnc([N+](=O)[O-])n1)=N\NC(=O)c1ccccc1 | 40 µM
25 | O=S1(=O)CC=C(CSc2nc3ccccc3[nH]2)C1 | < 0.1 µM
26 | CCCCCCCCCCCCCCCCn1cc[n+](C)c1 | 0.74 µM
27 | O=C(Cn1nc(CNc2ccc(Cl)cc2)[n+]2c1CCCCC2)c1ccc(Br)cc1 | 11.2 µM
28 | CCCCOc1ccc(CSC(=N)N)cc1Cl | 10.9 µM
29 | Cc1cc(C)n(-c2nc(NCCN(C)C)c3c4c(sc3n2)CCCC4)n1 | 4.39 µM
30 | COc1ccc(Nc2ccnc3ccccc23)cc1 | 30.7 µM
31 | CCCOc1ccc(CSC2=NCCN2)cc1[N+](=O)[O-] | 20.8 µM
32 | COc1ccc(Nc2c3ccccc3nc3ccccc23)cc1 | 8.99 µM
33 | Oc1c(CN2CCN(c3ccccn3)CC2)cc(Cl)c2cccnc12 | 1.64 µM
34 | COc1cc(/C=C/[N+](=O)[O-])ccc1O | 12.1 µM
35 | O=C(Nc1ccc(Cc2ccncc2)cc1)c1ccc([N+](=O)[O-])o1 | 4.02 µM
36 | O=C(NCCCN1CCOCC1)c1sc2cc(Cl)ccc2c1Cl | 35.8 µM
37 | O=C(CCN1Cc2ccccc2C1)c1ccc2c(c1)OCCO2 | 19 µM
38 | Nc1cc2c3c(cccc3c1)C(=O)N(CCN1CCCC1)C2=O | 11.3 µM
39 | OCCN1CCN(CCCN2c3ccccc3Sc3ccc(C(F)(F)F)cc32)CC1 | 12.7 µM
40 | CCCCCCCCCCCCCCCC[N+](C)(C)CCN(Cc1ccc(OC)cc1)c1ncccn1 | 0.36 µM
41 | Cc1ccc(C(=O)N2C(=S)C(c3ccc(F)cc3)=NC23CCN(C)CC3)cc1 | 16.7 µM
42 | Cc1ccc(C(C)C)c(OCCNC(=O)c2ccccc2O)c1 | 32.5 µM
43 | O=C(Nc1ccncc1)c1cc(-c2ccccn2)nc2ccccc12 | 23.7 µM
44 | CCOc1cccc(/C=N/NC(=O)c2cc(C3CC3)[nH]n2)c1O | 5.46 µM
45 | CCn1nnc(NC(=O)c2ccc([N+](=O)[O-])o2)n1 | 13.6 µM
46 | CSc1nc2cc(Oc3cccc(Cl)c3Cl)c(Cl)cc2[nH]1 | 43.9 µM

Row | Compound | EC50
47 | Cc1ccc(-c2c[n+](Cc3ccc(Cl)cc3)c3n2CCC3)cc1 | 10.1 µM
48 | Oc1ccccc1C(Nc1nccs1)c1ccc2cccnc2c1O (configuration not stated) | 2.11 µM
49 | Cc1ccc(-c2c[n+](Cc3ccc(Cl)c(Cl)c3)c3n2CCC3)cc1 | 4.37 µM
50 | OC(CN1CCCCC1)Cn1c2ccccc2c2cc(Br)ccc21 (configuration not stated) | 17.5 µM
51 | COC12C(COC(N)=O)C3=C(C(=O)C(C)=C(N)C3=O)N1CC1C2N1C (configuration not stated) | 11.6 µM
52 | CCN(CC)C(=S)SSC(=S)N(CC)CC | 21.9 µM
53 | COc1cccc(/C=N/NC(=O)c2ccoc2C)c1O | 4.3 µM
54 | c1cc2c(cc1C1CCCCC1)c1c3n2CCN=C3CCC1 | 11.9 µM
55 | CC(C)C1N=C(c2ccc3c(c2)OCO3)CC(c2ccccc2O)N1 (configuration not stated) | 43.3 µM
56 | c1ccc2c(c1)CSc1sccc1C2=C1CCNCC1 | 17.7 µM
57 | CCN1/C(=C/c2cc[n+](C)cc2)C=Cc2cc(C)ccc21 | 6.78 µM
58 | CCN1CCN(CCNC(=O)c2ccc(/C=C3/Sc4ccccc4N(Cc4cccc(C)c4)C3=O)cc2)CC1 | 8.21 µM
59 | CN(C)CCCNc1cc(C(C)(C)C)nc2c(-c3ccc(Cl)cc3)cnn12 | 7.99 µM
60 | C/C(=N\N=C(N)N)c1ccc(Cl)c(Cl)c1 | 13.3 µM
61 | CN(C)c1ccc2nc3ccc(=[N+](C)C)cc-3sc2c1 | 0.72 µM
62 | O=[N+]([O-])c1cc(CN2CCN(c3cccc(C(F)(F)F)c3)CC2)c2cccnc2c1O | 1.74 µM
63 | CC(=O)Nc1ccc(NC(=O)CSc2ccc(-c3ccco3)nn2)cc1 | < 0.1 µM
64 | CC[C@H]1OC(=O)C[C@@H](O)[C@H](C)[C@@H](O[C@@H]2O[C@H](C)C[C@H](N(C)C)[C@H]2O)[C@@H](CC=O)C[C@@H](C)C(=O)C=C[C@]2(C)O[C@H]2[C@@H]1C | 12.2 µM
65 | COc1ccc(C(=O)NC(=S)NNC(=O)c2cnccn2)cc1 | 2.98 µM
66 | CC(Oc1ccc(Br)cc1)c1nc2c3ccccc3nc(=S)n2[nH]1 (configuration not stated) | 17.9 µM
67 | CCOC(=O)c1c(-c2ccccc2)oc2ccc(OCC(O)CNCCN(C)C)cc12 (configuration not stated) | 5.89 µM
68 | O=Cc1c(Cl)nc2ccccn2c1=O | 21.7 µM
69 | O=C(Nc1nc(-c2ccccn2)cs1)c1ccc(Br)s1 | 1.19 µM

Row | Compound | EC50
70 | Cc1cccc(NC(=O)C2CCCN2S(=O)(=O)c2ccc3c(c2)n(C)c(=O)c(=O)n3C)c1 (configuration not stated) | 11 µM
71 | O=c1c2ccccc2nc(N/N=C/c2c(O)ccc3ccccc23)n1O | 0.99 µM
72 | Clc1ccc(OCCCNCc2ccccc2)c2ccccc12 | 23.4 µM
73 | Oc1ccc(/C=N/N=C(c2ccccc2)c2ccccc2)c(O)c1O | 7.47 µM
74 | O=C(C[n+]1cc(-c2ccc(Cl)c(Cl)c2)n2c1CCC2)N1c2ccccc2Sc2ccccc21 | 10.3 µM
75 | O=C(N/N=C/c1cc([N+](=O)[O-])ccc1O)c1cccc2cc[nH]c12 | 1.91 µM
76 | Oc1ccc(C=Nc2cccc3ncccc23)c(O)c1 | 3.33 µM
77 | C=CCc1cc(Cl)ccc1OCCCNCCO | 43.1 µM
78 | O=C(CCN1CCOCC1)N/N=C/c1cc(Br)cc(Br)c1O | 24.8 µM
79 | Nc1cc(Cl)c2nonc2c1[N+](=O)[O-] | 2.73 µM
80 | CNc1ccc(SC#N)cc1 | 33.7 µM
81 | O=C(O)c1csc(-c2ccc(Cl)cc2)n1 | < 0.1 µM
82 | CNC(CC(=O)c1ccc([N+](=O)[O-])cc1)C(Cl)(Cl)Cl (configuration not stated) | 9.95 µM
83 | CN(C)CCCN(C(=O)c1ccc2c(c1)CCCC2)c1nc2ccc(Cl)cc2s1 | 9.82 µM
84 | C[C@H]1c2cccc(O)c2C(O)=C2C(=O)C3(O)C(O)=C(C(N)=O)C(=O)[C@@H](N(C)C)[C@@H]3[C@@H](O)[C@@H]21 (some centres not stated) | 30.3 µM
85 | Cc1cc(C)n(-c2nc(SCCN(C)C)c3c4c(sc3n2)CCCC4)n1 | 3.25 µM
86 | COc1cccc(/C=C/C(=O)c2cccc([N+](=O)[O-])c2)c1OC | 22.3 µM
87 | COc1cc(/C=N/N=C(N)N)ccc1OCc1ccc(Cl)cc1 | 7.26 µM
88 | CC1(C)CC(N2CCN(C(c3ccccc3)c3ccccc3)CC2)=CC(=[N+]2CCCCC2)C1 | 1.05 µM
89 | CCCCOc1ccc(NC2=NC3(CCCCC3)N=C(N)N2)cc1 | 7.18 µM
90 | Cc1ccc2c(c1)c1c(n2CC(O)CNC2CCCCC2)CCCC1 (configuration not stated) | 7.7 µM
91 | C/C(=N\Nc1ccc2nncn2n1)c1ccccn1 | 6.13 µM
92 | O=C(CCc1ccccc1)NNC(=O)c1ccccn1 | 18.2 µM

Row | Compound | EC50
93 | C[C@H]1O[C@@H](n2cc(F)c(=O)[nH]c2=O)[C@H](O)[C@@H]1O | 26.7 µM
94 | Cc1nn(-c2nc3ccccc3[nH]2)c(N)c1-c1ccccc1 | 28.7 µM
95 | CC[C@@H](C)[C@H](CN[C@H](CNC)C(C)C)NC[C@@H](C)c1ccc(CC(C)C)cc1 | 5.96 µM
96 | O=C(N/N=C/c1cccc(OCc2ccccc2)c1)c1cccs1 | 40.4 µM
97 | CCN1CCCC1CNC(=O)C1CCN(Cc2nc(-c3cccc(Br)c3)oc2C)CC1 (configuration not stated) | 12.4 µM
98 | Cc1ccc(C(OCC(O)CNCc2ccc(F)cc2)c2ccccc2)cc1 (configuration not stated) | 13 µM
99 | CCCCCCCCCCn1c2c(c(=N)c3c1CCC3)CCC2 | 0.21 µM
100 | N=c1n(CCN2CCCCC2)c2ccccc2n1CC(O)c1ccc(Cl)c(Cl)c1 (configuration not stated) | 4.6 µM
101 | CCCCCCCCC[n+]1cccc2c3ccccc3ccc21 | 0.82 µM
102 | CCn1cc(C(=O)NCCc2ccccc2)c(=O)c2cc(F)c(N3CCN(C)CC3)cc21 | 35.4 µM
103 | Cc1nc(NC2=NCN(CCCN3CCOCC3)CN2)nc2c(C)cccc12 | 13.9 µM
104 | c1ccc(CN2CCN(c3nc(NCc4ccco4)c4ccccc4n3)CC2)cc1 | 15.3 µM
105 | N=C1c2ccccc2CN1c1ncccn1 | < 0.1 µM
106 | C#CCOCCOCCOCCNc1nc(N2CCN(C(=O)CCCCCCCCCCNC(=O)[C@H](CO)n3cc(CCCCCN)nn3)CC2)nc(N2CCN(C(=O)CCCCCCCCCCNC(=O)[C@H](CCCN=C(N)N)n3cc(C[C@@H](C)CC)nn3)CC2)n1 | 6.31 µM
107 | O=C(Nc1c2ccccc2nc2ccccc12)C(Cl)(Cl)Cl | 20 µM
108 | CCCCC(CC)CN=C(N)NC(N)=NCCCCCCN=C(N)NC(N)=NCC(CC)CCCC (configuration not stated) | 0.83 µM
109 | COc1cc(Br)cc(C=Nc2cccc(C(F)(F)F)c2)c1O | 50 µM
110 | Cc1ccc(-c2ccccc2NC(=O)CS(=O)CC(=O)Nc2ccc(C)c(Cl)c2)o1 (configuration not stated) | 32.2 µM
111 | Cn1c(=O)c2c(nc(Br)n2CCSc2nc3ccccc3o2)n(C)c1=O | < 0.1 µM
112 | Cc1oc(/N=C/c2ccc(O)cc2O)c(C#N)c1C | < 0.1 µM
